Results from patent publication US20240101531A1, “PYRIDINAMINE DERIVATIVES AND THEIR USE AS POTASSIUM CHANNEL MODULATORS” (Xenon Pharmaceuticals Inc., priority 2022, published 2024).
Counter-ions that a name gives are not always drawn.

The compounds below were run against human KV7.2/KV7.3 (Homo sapiens (Human), UniProt O43525+O43526) (assay: Potassium flux assay (IPG-2 AM dye)). Conditions: TREX HEK 293 or HEK 293 cells expressing human KV7.2/KV7.3; arithmetic mean values.
Assay type: cell-based
Outline: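 HEK 293 or TREX HEK 293 cells stably expressing human KV7.2/KV7.3 (tetracycline-induced where needed), loaded with IPG-2 AM, then compound for 20 min at room temperature. Flux triggered by K challenge buffer (10 mM KCl, pH 7.4), read at 530/558 nm; EC50 from 16-point 2-fold series from 30 μM, normalised to DMSO and reference modulator.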

Row | Compound | EC50 [nM]
1 | O=C(C1CC1)N1CCC(Oc2ccc3c(Nc4ccc(Cl)nc4)nccc3c2)CC1 [Example 121, (4-((1-((6-chloropyridin-3-yl)amino)isoquinolin-6-yl)oxy)piperidin-1-yl)(cyclopropyl)methanone] | 1000 to 10000
2 | O=c1cc[nH]n1CCOc1ccc2c(Nc3ccc(Cl)nc3)nccc2c1 [Example 75, 2-(2-((1-((6-chloropyridin-3-yl)amino)isoquinolin-6-yl)oxy)ethyl)-1,2-dihydro-3H-pyrazol-3-one] | 1000 to 10000
3 | CC1(C)CCC(COc2ccc3c(Nc4cnc(Cl)nc4)nccc3c2)O1 (stereo not shown) [Example 420] | 1000 to 10000
4 | CC[C@@H](OC)c1ccc2c(Nc3ccc(Cl)nc3)nccc2c1 [Example 130, (R)—N-(6-chloropyridin-3-yl)-6-(1-methoxypropyl)isoquinolin-1-amine] | 10000 to 30000
5 | Cc1ccc(Nc2nccc3cc(OCC4COC4)ccc23)cn1 [Example 214, N-(6-methylpyridin-3-yl)-6-(oxetan-3-ylmethoxy)isoquinolin-1-amine] | 1000 to 10000
6 | NC(COc1ccc2c(Nc3ccc(Cl)nc3)nccc2c1)C(F)(F)F (stereo not shown) [Example 226, 6-(2-amino-3,3,3-trifluoropropoxy)-N-(6-chloropyridin-3-yl)isoquinolin-1-amine] | 1000 to 10000
7 | Clc1ccc(Nc2nccc3cc(OCCn4cccn4)ccc23)cn1 [Example 120, 6-(2-(1H-pyrazol-1-yl)ethoxy)-N-(6-chloropyridin-3-yl)isoquinolin-1-amine] | 10000 to 30000
8 | COC1CN(CCOc2ccc3c(Nc4ccc(Cl)nc4)nccc3c2)C1 [Example 72, N-(6-chloropyridin-3-yl)-6-(2-(3-methoxyazetidin-1-yl)ethoxy)isoquinolin-1-amine] | 10000 to 30000
9 | Clc1ccc(Nc2nccc3ccccc23)cn1 [Example 33, N-(6-chloropyridin-3-yl)isoquinolin-1-amine] | 1000 to 10000
10 | Cc1ncc(Nc2nccc3cc(OCc4cnn(C)c4)ccc23)cc1O [Example 324, 2-methyl-5-((6-((1-methyl-1H-pyrazol-4-yl)methoxy)isoquinolin-1-yl)amino)pyridin-3-ol] | 1000 to 10000
11 | COc1ccc(Nc2nccc3cc(OCC4(C)COC4)ccc23)cn1 [Example 67, N-(6-methoxypyridin-3-yl)-6-((3-methyloxetan-3-yl)methoxy)isoquinolin-1-amine] | ≥ 30000
12 | Clc1ccc(Nc2nccc3cc(CNc4cn[nH]c4)ccc23)cn1 [Example 248, 6-(((1H-pyrazol-4-yl)amino)methyl)-N-(6-chloropyridin-3-yl)isoquinolin-1-amine] | 1000 to 10000
13 | F[C@@H]1C[C@H]1COc1ccc2c(Nc3ccc(Cl)nc3)nccc2c1 [Example 413, N-(6-chloropyridin-3-yl)-6-(((1S,2R)-2-fluorocyclopropyl)methoxy)isoquinolin-1-amine] | 1000 to 10000
14 | N#C[C@H]1CCC[C@@H](Oc2ccc3c(Nc4ccc(Cl)nc4)nccc3c2)C1 [Example 345, (1 S,3R)-3-((1-((6-chloropyridin-3-yl)amino)isoquinolin-6-yl)oxy)cyclohexane-1-carbonitrile] | 1000 to 10000
15 | Oc1ccc2c(Nc3ccc(Cl)nc3)nccc2c1 [Example 69, 1-((6-chloropyridin-3-yl)amino)isoquinolin-6-ol] | 10000 to 30000
16 | CC1(C)CC[C@@H](COc2ccc3c(Nc4ccc(Cl)nc4)nccc3c2)O1 [Example 405, (S)-N-(6-chloropyridin-3-yl)-6-((5,5-dimethyltetrahydrofuran-2-yl)methoxy)isoquinolin-1-amine] | 1000 to 10000
17 | C#CC(C)(C)COc1ccc2c(Nc3ccc(Cl)nc3)nccc2c1 [Example 136, N-(6-chloropyridin-3-yl)-6-((2,2-dimethylbut-3-yn-1-yl)oxy)isoquinolin-1-amine] | 1000 to 10000
18 | CS(=O)(CC1COC1)=Nc1ccc2c(Nc3ccc(Cl)nc3)nccc2c1 (stereo not shown) [Example 272, ((1-((6-chloropyridin-3-yl)amino)isoquinolin-6-yl)imino)(methyl)(oxetan-3-ylmethyl)-λ^6-sulfanone] | 1000 to 10000
19 | CO[C@H]1CC[C@@H](Oc2ccc3c(Nc4ccc(Cl)nc4)nccc3c2)CC1 [Example 104, N-(6-chloropyridin-3-yl)-6-(((1s,4s)-4-methoxycyclohexyl)oxy)isoquinolin-1-amine] | 10000 to 30000
20 | CN1CC(F)(COc2ccc3c(Nc4ccc(Cl)nc4)nccc3c2)C1 [Example 128, N-(6-chloropyridin-3-yl)-6-((3-fluoro-1-methylazetidin-3-yl)methoxy)isoquinolin-1-amine] | 10000 to 30000
21 | COC1(COc2ccc3c(Nc4cnc(C)nc4)nccc3c2)COC1 [Example 219, 6-((3-methoxyoxetan-3-yl)methoxy)-N-(2-methylpyrimidin-5-yl)isoquinolin-1-amine formate] | 1000 to 10000
22 | CS(=O)(=O)C1(COc2ccc3c(Nc4ccc(Cl)nc4)nccc3c2)CCC1 [Example 287, N-(6-chloropyridin-3-yl)-6-((1-(methylsulfonyl)cyclobutyl)methoxy)isoquinolin-1-amine] | 1000 to 10000
23 | Cc1ncc(Nc2nccc3cc(OCC4(F)CC4)ccc23)cc1Cl [Example 45, N-(5-chloro-6-methylpyridin-3-yl)-6-((1-fluorocyclopropyl)methoxy)isoquinolin-1-amine] | ≥ 30000
24 | Fc1cc2c(Nc3ccc(Cl)nc3)nccc2cc1OCC1(F)CC1 [Example 247, N-(6-chloropyridin-3-yl)-7-fluoro-6-((1-fluorocyclopropyl)methoxy)isoquinolin-1-amine] | 10000 to 30000

Now from value to compound:

Row | EC50 [nM] | Compound
25 | 1000 to 10000 | CC(=O)N1CC[C@H](Oc2ccc3c(Nc4ccc(Cl)nc4)nccc3c2)C1 [Example 111, (S)-1-(3-((1-((6-chloropyridin-3-yl)amino)isoquinolin-6-yl)oxy)pyrrolidin-1-yl)ethan-1-one]
26 | < 1000 | CC1(COc2ccc3c(Nc4ccc(Cl)nc4)nccc3c2)CCCO1 (stereo not shown) [Example 406, N-(6-chloropyridin-3-yl)-6-((2-methyltetrahydrofuran-2-yl)methoxy)isoquinolin-1-amine]
27 | 1000 to 10000 | COc1cnc2c(Nc3ccc(Cl)nc3)nccc2c1 [Example 399, N-(6-chloropyridin-3-yl)-3-methoxy-1,7-naphthyridin-8-amine]
28 | < 1000 | Clc1ccc(Nc2nccc3cc(OCC4CCOC4)ccc23)cn1 (stereo not shown) [Example 415, N-(6-chloropyridin-3-yl)-6-((tetrahydrofuran-3-yl)methoxy)isoquinolin-1-amine]
29 | < 1000 | Clc1ccc(Nc2nccc3cc(OC4CCOC4)ccc23)cn1 (stereo not shown) [Example 263, N-(6-chloropyridin-3-yl)-6-((tetrahydrofuran-3-yl)oxy)isoquinolin-1-amine]
30 | < 1000 | FC1(COc2ccc3c(Nc4cnc(Cl)nc4)nccc3c2)COC1 [Example 56, N-(2-chloropyrimidin-5-yl)-6-((3-fluorooxetan-3-yl)methoxy)isoquinolin-1-amine]
31 | < 1000 | O[C@@H]1CCC[C@H](Oc2ccc3c(Nc4cnc(Cl)nc4)nccc3c2)C1 (relative stereo) [Example 348, cis-3-((1-((2-chloropyrimidin-5-yl)amino)isoquinolin-6-yl)oxy)cyclohexan-1-ol]
32 | < 1000 | CC(C)C1(COc2ccc3c(Nc4cnc(Cl)nc4)nccc3c2)COC1 [Example 41, N-(2-chloropyrimidin-5-yl)-6-((3-isopropyloxetan-3-yl)methoxy)isoquinolin-1-amine]
33 | < 1000 | Cn1cc(COc2ccc3c(Nc4ccc(Cl)nc4)nccc3c2)c(Cl)n1 [Example 292, 6-((3-chloro-1-methyl-1H-pyrazol-4-yl)methoxy)-N-(6-chloropyridin-3-yl)isoquinolin-1-amine]
34 | < 1000 | Clc1ccc(Nc2nccc3cc(OC4CCOCC4)ccc23)cn1 [Example 197, N-(6-chloropyridin-3-yl)-6-((tetrahydro-2H-pyran-4-yl)oxy)isoquinolin-1-amine]
35 | < 1000 | FC(F)n1cc(COc2ccc3c(Nc4ccc(Cl)nc4)nccc3c2)cn1 [Example 279, N-(6-chloropyridin-3-yl)-6-((1-(difluoromethyl)-1H-pyrazol-4-yl)methoxy)isoquinolin-1-amine]
36 | < 1000 | FC1(F)CC1COc1ccc2c(Nc3ccc(Cl)nc3)nccc2c1 (stereo not shown) [Example 404, N-(6-chloropyridin-3-yl)-6-((2,2-difluorocyclopropyl)methoxy)isoquinolin-1-amine]
37 | < 1000 | Cc1ncc(Nc2nccc3cc(OCc4cnoc4)ccc23)cn1 [Example 241, 6-(isoxazol-4-ylmethoxy)-N-(2-methylpyrimidin-5-yl)isoquinolin-1-amine]
38 | < 1000 | Cn1ccc(COc2ccc3c(Nc4cnc(Cl)nc4)nccc3c2)n1 [Example 203, N-(2-chloropyrimidin-5-yl)-6-((1-methyl-1H-pyrazol-3-yl)methoxy)isoquinolin-1-amine]
39 | < 1000 | OC12CC3CC(C1)CC(Oc1ccc4c(Nc5ccc(Cl)nc5)nccc4c1)(C3)C2 [Example 331, 3-((1-((6-chloropyridin-3-yl)amino)isoquinolin-6-yl)oxy)adamantan-1-ol]
40 | < 1000 | C[C@]1(O)CC[C@@H](Oc2ccc3c(Nc4ccc(Cl)nc4)nccc3c2)CC1 [Example 265, cis-4-((1-((6-chloropyridin-3-yl)amino)isoquinolin-6-yl)oxy)-1-methylcyclohexan-1-ol]
41 | < 1000 | CC1(COc2ccc3c(Nc4cnc(Cl)c(N)c4)nccc3c2)COC1 [Example 163, 2-chloro-N^5-(6-((3-methyloxetan-3-yl)methoxy)isoquinolin-1-yl)pyridine-3,5-diamine]
42 | < 1000 | FC1(COc2ccc3c(Nc4ccc(Cl)nc4)nccc3c2)CCOC1 (stereo in doubt) [Example 365, (S)—N-(6-chloropyridin-3-yl)-6-((3-fluorotetrahydrofuran-3-yl)methoxy)isoquinolin-1-amine]
43 | < 1000 | Cc1ncc(Nc2nccc3cc(OCc4cnn(C)c4C)ccc23)cn1 [Example 353, 6-((1,5-dimethyl-1H-pyrazol-4-yl)methoxy)-N-(2-methylpyrimidin-5-yl)isoquinolin-1-amine]
